Measured values reported in patent US3970643A, “5"-Amino-3',5"-dideoxybutirosin A and derivatives” (Parke, Davis & Company, priority 1975, dated 1976).

Legend:
Assay in all cases: MIC, microtitration in TSB, in vitro antibacterial screening
Assay type in all cases: cell-based
Entero. cloacae IMM-50 = details: Enterobacter cloacae, IMM50
Description: (§1) They show activity when tested by well-recognized in vitro anti-bacterial screening procedures.

Klebs. pneumoniae MGH-1 = details: Klebsiella pneumoniae, MGH1
Description: as §1

Pseudo. aerug. 58.38 = details: Pseudomonas aeruginosa
Description: as §1

Pseudo. aerug. 733 = details: Pseudomonas aeruginosa
Description: as §1

Pseudo. aerug. 74C-1 = details: Pseudomonas aeruginosa
Description: as §1

Pseudo. aerug. Aquilar = details: Pseudomonas aeruginosa, butirosin resistant
Description: as §1

Pseudo. aerug. LA-3399 = details: Pseudomonas aeruginosa
Description: as §1

Pseudo. aerug. No. 28 = details: Pseudomonas aeruginosa
Description: as §1

Pseudo. aerug. UI-18 = details: Pseudomonas aeruginosa
Description: as §1

Pseudo. aerug. VAD12-7-7 = details: Pseudomonas aeruginosa
Description: as §1

Serr. marcescens IMM-5 = details: Serratia marcescens, IMM5
Description: as §1

Staph auretis S18713 = details: Staph auretis S18713, butirosin resistant
Description: as §1

Esch. coli JR-76.2 = details: Escherichia coli, JR76.2
Description: as §1
(§2) ^b Butirosin and Gentamicin resistant

Pseudo. aerug. G-76 = details: Pseudomonas aeruginosa, Pseudo. aerug. G-76, butirosin and gentamicin resistant
Description: as §1, §2

Pseudo. aerug. 130 = details: Pseudomonas aeruginosa, Pseudo. aerug. 130, gentamicin resistant
Description: as §1
^c Gentamicin resistant

Measured: MIC

NCC[C@H](O)C(=O)N[C@@H]1C[C@H](N)[C@@H](O[C@H]2O[C@H](CN)[C@@H](O)C[C@H]2N)[C@H](O[C@@H]2O[C@H](CN)[C@H](O)[C@H]2O)[C@H]1O [I carbonate, 5"-amino-3',5"-dideoxybutirosin A]
25 µg/mL: Serr. marcescens IMM-5 | Esch. coli JR-76.2
12.5 µg/mL: Pseudo. aerug. Aquilar | Pseudo. aerug. LA-3399 | Pseudo. aerug. G-76
1.6 µg/mL: Pseudo. aerug. No. 28
6.3 µg/mL: Entero. cloacae IMM-50 | Klebs. pneumoniae MGH-1 | Pseudo. aerug. 130
3.1 µg/mL: all other assays above
